{"source": "paper PMC4632738", "about": "“New Peptide-Conjugated Chlorin-Type Photosensitizer Targeting Neuropilin-1 for Anti-Vascular Targeted Photodynamic Therapy” (International Journal of Molecular Sciences, 2015)", "key": {"HUVEC": {"test_system": "HUVEC", "parameters": "method as in PMID 17283031", "conditions": "cited from earlier work; for Light doses 50 values: red light"}, "[1]": {"assay": "Photophysical characterization (UV-Vis absorption, fluorescence and singlet oxygen quantum yields)", "format": "physicochemical", "conditions": "ethanol, room temperature; for Molar Extinction Coefficient Soret ε415: 415 nm; for Molar Extinction Coefficient QIV ε516: 516 nm; for Molar Extinction Coefficient QIII ε543: 543 nm; for Molar Extinction Coefficient QII ε598: 598 nm; for Molar Extinction Coefficient QI ε650: 650 nm; for Fluorescence quantum yield Φf: ±0.02, reference TPP in toluene; for Singlet oxygen quantum yield Φ∆: ±0.05, reference rose Bengal in ethanol", "text": "Table 3 summarizes the molar extinction coefficient values of the six conjugates as well as their fluorescence and singlet oxygen quantum yield values.\nThe photophysical properties of TPC and the TPC–peptide conjugates were characterized using three different techniques; UV/visible absorption (Perkin Elmer Lambda 2 UV-Vis spectrophotometer, Courtaboeuf, France), fluorescence emission (SPEX Fluorolog-3 spectrofluorometer, Jobin Yvon, Longjumeau, Paris, France) and singlet oxygen emission. For UV-Vis measurements, the samples of TPC and the six conjugates were diluted in ethanol and their spectra were determined in the range of 300 to 800 nm. For fluorescence emission spectra, samples with an absorption at 415 nm equal to 0.200 (±0.02) were prepared. Solvent refractive index and absorption efficiencies of fluorescence quantum yields (Φf) were calculated based on a TPP solution in toluene as a fluorescence standard reference (Φf(ref) = 0.11) as described by Equation (2): (2) ϕf=ϕf(ref)×I/Iref×Aref/A×(n/nref)^2 where A and Aref correspond to the absorbance at 415 nm of the sample and TPP, respectively, while I and Iref are the areas under the fluorescence spectra between 600 and 750 nm of the sample and TPP, respectively. n and nref are the refractive indices of solvents used for the sample and TPP, respectively (n/nethanol = 1.361, nref/ntoluene = 1.496).\nSinglet oxygen emission spectra were recorded on SPEX 1680 with […] double monochromator with a Xenon arc lamp as excitation source. Singlet oxygen generation was specifically detected at 1270 nm and the emission was monitored by using liquid nitrogen-cooled germanium-detector (EO-817P, North Coast Scientific, North Ridgeville, OH, USA). A solution of rose Bengal in ethanol was used as the reference, ΦΔ(ref) = 0.68 [25]. The singlet oxygen quantum yield was then determined using Equation (3): (3) ϕΔ=ϕΔ(ref)×I/Iref×Aref/A where A and Aref are the UV visible absorbance at 415 nm of the sample and rose Bengal (the reference), respectively, while I and Iref are the peak intensities of luminescence at 1270 nm of the sample and rose Bengal, respectively."}, "[2]": {"target": "T1, recombinant NRP-1 protein (Homo sapiens, UniProt O14786)", "T1 sequence (O14786 22-923)": "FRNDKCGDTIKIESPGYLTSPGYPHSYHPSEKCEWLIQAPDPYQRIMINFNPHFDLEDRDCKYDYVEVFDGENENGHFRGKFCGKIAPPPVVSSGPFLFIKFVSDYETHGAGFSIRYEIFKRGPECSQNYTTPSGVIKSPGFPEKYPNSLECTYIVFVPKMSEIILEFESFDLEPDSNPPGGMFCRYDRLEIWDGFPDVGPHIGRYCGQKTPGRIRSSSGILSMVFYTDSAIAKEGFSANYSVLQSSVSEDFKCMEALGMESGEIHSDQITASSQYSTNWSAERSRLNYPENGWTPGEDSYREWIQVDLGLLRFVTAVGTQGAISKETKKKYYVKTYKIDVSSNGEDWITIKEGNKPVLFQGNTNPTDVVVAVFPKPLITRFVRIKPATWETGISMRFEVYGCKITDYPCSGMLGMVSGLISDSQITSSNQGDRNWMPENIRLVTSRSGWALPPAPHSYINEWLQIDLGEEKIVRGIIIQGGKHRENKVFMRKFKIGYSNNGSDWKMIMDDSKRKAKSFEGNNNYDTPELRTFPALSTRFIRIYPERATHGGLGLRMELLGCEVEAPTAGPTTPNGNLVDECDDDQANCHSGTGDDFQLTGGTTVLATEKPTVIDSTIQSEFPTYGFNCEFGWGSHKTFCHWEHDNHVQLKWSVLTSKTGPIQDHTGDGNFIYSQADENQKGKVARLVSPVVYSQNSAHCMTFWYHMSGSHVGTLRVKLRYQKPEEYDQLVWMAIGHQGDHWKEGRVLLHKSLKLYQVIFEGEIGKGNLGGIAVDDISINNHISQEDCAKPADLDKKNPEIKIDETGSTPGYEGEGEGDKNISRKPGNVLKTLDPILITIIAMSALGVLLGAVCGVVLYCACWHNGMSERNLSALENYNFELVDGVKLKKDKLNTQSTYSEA", "assay": "Competitive binding ELISA, displacement of biotinylated VEGF165", "method": "The molecular affinity of the different TPC–peptide conjugates for recombinant NRP-1 protein was estimated through a competitive binding test using biotinylated VEGF165 to NRP-1 receptor recognition recombinant. As biotinylated VEGF165 binding to this receptor is heparin dependent, the competitive binding tests were performed in the presence of heparin (2 µg/mL).\nThe conjugates were first dissolved in DMSO and subsequently diluted in methanol. Tween-20 was added in the blocking buffer to assist in the solubilization of the conjugate. The samples were prepared in ten different concentrations ranging from 3 to 960 µM."}, "[3]": {"assay": "Shake flask octanol/PBS pH 7.4 distribution coefficient", "format": "physicochemical", "conditions": "expressed as log, mean ± S.D.", "protocol": "The distribution coefficient values at pH 7.4 from the shake flask method and the retention time from HPLC analysis of TPC and the conjugates are summarized in Table 2. The TPC-spacer-peptides were analyzed by HPLC (column Altech, Apollo C18 reverse-phase (5 μm; 250 mm × 4.6 mm)) on a Shimadzu LC-10ATvp, monitored by a UV/Visible detector at 214 and 415 nm on a SPD-10A UV-Visible detector. […] The log DpH7.4 value for TPC–Ahx–ATWLPPR obtained (2.61 ± 0.2) was also consistent with data published by Tirand et al., confirming the hydrophobic characteristic of TPC and the TPC–Ahx–ATWLPPR conjugate.\nHydrophilic and hydrophobic characteristics were also evaluated using the “shake flask” method to determine the solubility of the free TPC and the conjugates. […] The distribution coefficient, DpH7.4 was then expressed as log (mean ± S.D., n = 6)."}, "[4]": {"target": "T1, recombinant NRP-1 protein", "conditions": "cited from earlier work"}, "[5]": {"assay": "In vivo stability in plasma by MALDI-TOF MS", "conditions": "24 h after administration, mice", "protocol": "Female athymic Swiss nude/nude mice (7–9 weeks, weight range 20–25 g) were obtained from Harlan (Gannat, France). The in vivo study we conducted was based on the results obtained from the ELISA test conducted earlier. The conjugates of TPC–Ahx–ATWLPPR, TPC–PEG18–DKPPR and TPC–PEG18–TKPRR (2.8 mg/kg) were injected intravenously via the tail vein in ethanol–PEG 400–water (2:3:5, v/v/v). The mice were kept in the dark after the injection. After 1, 4 and 24 h, blood samples were collected and plasma was separated from the blood. The mice were sacrificed and tissues were carefully excised. All samples were kept in the dark at −80 °C in polypropylene tubes until further analysis.\nMALDI-TOF MS analyses were carried out on a Bruker Reflex IV time-of-flight mass spectrometer (Bruker-Daltonic, Bremen, Germany) equipped with the SCOUT 384 probe ion source fitted with a nitrogen pulsed laser (337 nm, VSD-337ND model, Laser Science Inc., Boston, MA, USA). The laser output energy was 400 μJ/pulse. Positives ions were accelerated with a 200 ns extraction delay. The reflector voltage was 23 kV. […]\nMALDI-TOF MS analyses were performed using 2,5-dihydroxybenzoic acid (DHB) (Sigma-Aldrich, Saint-Quentin-Fallavier, France) as the matrix. […] All samples were analyzed in duplicate."}, "[6]": {"parameters": "method as in PMID 17283031", "conditions": "cited from earlier work"}, "[7]": {"assay": "In vivo plasma concentration by HPLC after intravenous injection", "conditions": "mice, 2.8 mg/kg i.v., sampled at 1, 4 and 24 h", "protocol": "The in vivo stability study was carried out with only two of the novel conjugates synthesized; TPC–PEG18–DKPPR and TPC–PEG18–TKPRR were selected because of to their interesting hydrophilicity properties. We selected TPC–Ahx–ATWLPPR conjugate as a reference based on our previous studies. Blood and tissue samples were weighed and kept at −80 °C in polypropylene tubes, until further processing. Extraction of the conjugates from the tissues required first a solubilization step, using TEM buffer (10 mM Tris, 1.66 mM EDTA, 5 mM molybdate, pH 7.4) and homogenization. […] Conjugates levels in the plasma and tissues were determined as a percentage of the injected dose per gram […] (% injected dose/g of tissue) or per milliliter plasma. […]\nThe in vivo stability analyses were performed by HPLC equipped with programmable software GOLD version 1.6 (Beckman Coulter, Fullerton, CA, USA), an auto sampler injector (507e, System Gold, Beckman Coulter) and a fluorescence detector (RF-10A XL, Shimadzu, Kyoto, Japan). […] Fluorescence excitation and emission wavelengths were detected at 416 and 652 nm, respectively. […] The conjugate levels in plasma and organs were determined from the peak areas and normalized based on standard calibration curves constructed earlier. The data were calculated as the mean value of three mice."}, "[8]": {"conditions": "cited from earlier work"}}, "note": "Entries after “also recorded” stand apart in the source; their conditions may differ. Like-named read-outs stand apart in the source and are kept apart here. Ends that are not written are not given here. TPC = not defined here; Ahx = NCCCCCC(=O)O"}
{"molecule": "O=C(O)c1ccc(-c2c3nc(c(-c4ccccc4)c4ccc([nH]4)c(-c4ccccc4)c4nc(c(-c5ccccc5)c5ccc2[nH]5)CC4)C=C3)cc1", "note": "[TPC, 5-(4-carboxyphenyl)-10,15,20-triphenyl chlorin]", "values": [{"measurement": "Light doses 50 values", "setting": "HUVEC", "result": "4.9 ± 0.64", "unit": "J/cm^2"}, {"measurement": "Molar Extinction Coefficient Soret ε415", "setting": "[1]", "result": 76000, "unit": "L·M^−1·cm^−1"}, {"measurement": "Molar Extinction Coefficient QIV ε516", "setting": "[1]", "result": 8000, "unit": "L·M^−1·cm^−1"}, {"measurement": "Molar Extinction Coefficient QIII ε543", "setting": "[1]", "result": 5000, "unit": "L·M^−1·cm^−1"}, {"measurement": "Molar Extinction Coefficient QII ε598", "setting": "[1]", "result": 4000, "unit": "L·M^−1·cm^−1"}, {"measurement": "Molar Extinction Coefficient QI ε650", "setting": "[1]", "result": 12000, "unit": "L·M^−1·cm^−1"}, {"measurement": "Fluorescence quantum yield Φf", "setting": "[1]", "result": 0.18}, {"measurement": "Singlet oxygen quantum yield Φ∆", "setting": "[1]", "result": 0.47}, {"measurement": "Displacement of biotinylated VEGF165 binding onto NRP-1 protein", "setting": "[2]; heparin 2 µg/mL", "result": "failed to displace; also recorded: did not show any significant binding at all"}, {"measurement": "logD", "setting": "[3]; n = 6, read-out: Shake Flask Method Distribution Coefficient, D (log D pH7.4)", "result": "2.61 ± 0.2"}, {"measurement": "Displacement of the binding of VEGF165", "setting": "[4]", "result": "failed to do so"}]}
{"molecule": "TKPPR", "values": [{"measurement": "Displacement of the binding of VEGF165 to recombinant NRP-1 (ELISA)", "setting": "[4]; free peptides", "result": "able to displace the binding of VEGF165"}]}
{"molecule": "TPC–Ahx–ATWLPPR: TPC coupled via 6-aminohexanoic acid spacer to peptide ATWLPPR; group's earlier NRP-1 targeting conjugate ({TPC-Ahx}-ATWLPPR; reading uncertain; also: printed as TPC–Ahx–ATWLPPR)", "values": [{"measurement": "Enhancement of photodynamic activity versus TPC", "setting": "HUVEC", "result": 10.4, "unit": "fold"}, {"measurement": "Light doses 50 values", "setting": "HUVEC", "result": "0.47 ± 0.23", "unit": "J/cm^2"}, {"measurement": "Molar Extinction Coefficient Soret ε415", "setting": "[1]", "result": 74000, "unit": "L·M^−1·cm^−1"}, {"measurement": "Molar Extinction Coefficient QIV ε516", "setting": "[1]", "result": 6800, "unit": "L·M^−1·cm^−1"}, {"measurement": "Molar Extinction Coefficient QIII ε543", "setting": "[1]", "result": 4900, "unit": "L·M^−1·cm^−1"}, {"measurement": "Molar Extinction Coefficient QII ε598", "setting": "[1]", "result": 2600, "unit": "L·M^−1·cm^−1"}, {"measurement": "Molar Extinction Coefficient QI ε650", "setting": "[1]", "result": 12000, "unit": "L·M^−1·cm^−1"}, {"measurement": "Fluorescence quantum yield Φf", "setting": "[1]", "result": 0.18}, {"measurement": "Singlet oxygen quantum yield Φ∆", "setting": "[1]", "result": 0.39}, {"measurement": "MS signal of peak m/z 616 (attributed to the TPC moiety) in plasma", "setting": "[5]", "result": "not detected"}, {"measurement": "Time for which conjugate could be detected in the plasma", "setting": "[6]", "result": "≥ 48", "unit": "h"}, {"measurement": "Time up to which conjugate is found in plasma after intravenous injection", "setting": "[7]", "result": "up to 24 h"}, {"measurement": "Shake Flask Method Distribution Coefficient, D (log D pH7.4)", "setting": "[3]; n = 6", "result": "2.61 ± 0.2"}, {"measurement": "Displacement of the binding of VEGF165", "setting": "[4]", "result": "managed to displace the binding of VEGF165"}, {"measurement": "IC50", "setting": "[4]; read-out: IC50, displacement of VEGF165 binding to NRP-1", "result": 171, "unit": "µM"}]}
{"molecule": "DKPPR [DKPPR]", "values": [{"measurement": "IC50", "setting": "[2]", "result": 1, "unit": "µM"}]}
{"molecule": "O=C([O-])c1c(Cl)c(Cl)c(Cl)c(Cl)c1-c1c2cc(I)c(=O)c(I)c-2oc2c(I)c([O-])c(I)cc12.[Na+].[Na+]", "note": "[rose Bengal]", "values": [{"measurement": "Singlet oxygen quantum yield of standard reference ΦΔ(ref)", "setting": "[8]; in ethanol", "result": 0.68}]}
{"molecule": "C1=Cc2nc1c(-c1ccccc1)c1ccc([nH]1)c(-c1ccccc1)c1nc(c(-c3ccccc3)c3ccc([nH]3)c2-c2ccccc2)C=C1", "note": "[TPP]", "values": [{"measurement": "Fluorescence quantum yield of standard reference Φf(ref)", "setting": "[8]; in toluene", "result": 0.11}]}
{"molecule": "TKPRR [TKPRR]", "values": [{"measurement": "IC50", "setting": "[2]", "result": 1, "unit": "µM"}]}
